| melting point [°C] | SMILES |
| --- | --- |
| 150 | Nc1ccc2c(c1)S(=O)(=O)C=C2 |
| 194 | BrC(CCC(Br)C(Br)c1ccccc1)C(Br)c1ccccc1 (centres undefined) |
| 155 | O=C(O)c1cccc(S(=O)(=O)Oc2ccc3ccccc3c2)c1 |
| 110 | Cc1ccc(C(=O)O)o1 |
| 176 | Cc1ccc(C(=O)C(C)CN2CCCCC2)cc1 (centres undefined) |
| 162 | NC(CS(=O)(=O)c1ccccc1)=NO |
| 112 to 114 | NNC(=S)NCCc1ccccc1 |
| 169 | COc1ccc(C(=O)Oc2ccc(C(=O)/C=C/c3ccc4c(c3)OCO4)cc2)cc1 |
| 166 | O=C(O)CC(CC(=O)O)C(=O)O |
| 164 to 169 | Cc1cc([N+](=O)[O-])cc(C)c1O |
| 253 | N[C@@H](Cc1ccc(F)cc1)C(=O)O |
| -50 | CCCCCCC(=O)OCCCCC |
| 86 | COc1cc(C)oc(=O)c1 |
| 127 to 128 | Nc1cccnc1N1CCOCC1 |
| 215 | N#C/C(=N\Nc1ccc(F)cc1)c1nc2ccccc2c(=O)[nH]1 |
| 81 to 86 | COC(=O)CC(=O)c1ccc(C(=O)OC)cc1 |
| 132 | CCCCCCCCc1ccc(NC(=O)c2ccc(OC)cc2)cc1 |
| 73 | CC(=O)OC(CCC(=O)c1ccccc1)c1ccccc1 (centres undefined) |
| 176 | COc1ccc(C(=O)c2noc(-c3ccc([N+](=O)[O-])cc3)c2S(=O)(=O)c2ccccc2)cc1 |
| 46 | COc1ccc(F)c(C=O)c1OC |
| 116 to 117 | O=S(=O)(c1ccccc1)n1c(CBr)cc2ccccc21 |
| 12 | ClCCCOc1ccccc1 |
| 162 | COc1ccc2c(c1)CCc1ccc3c(c1-2)c(=O)n(-c1ccccc1)n3C |
| 157 | CCC(C(=O)O)C1(O)CCC(c2ccccc2)CC1 (centres undefined) |
| 140 | c1cnc2ncncc2n1 |
| 189 | NC(=O)C12CC3CC(CC(C3)C1)C2 |
| 199 | COC(=O)CC(CC(=O)OC)(c1cc(C)c(O)c(C)c1)c1cc(C)c(O)c(C)c1 |

| melting point [°C] | SMILES |
| --- | --- |
| 101 to 103 | CSc1cc(-c2ccc(F)cc2)n[nH]1 |
| 42 to 44 | Cc1cc(Br)cc(C)c1I |
| 242 | CC(=O)N1N=C(c2ccc3ccccc3c2)C[C@@H]1c1ccc(Cl)c(Cl)c1 |
| 166 to 168 | S=C=NC12CC3CC(CC(C3)C1)C2 |
| 185 to 187 | Nc1ncnc2c1ncn2C1CC(O)C(CO)O1 (centres undefined) |
| 280 | C=C1C(=O)C23C(OC(C)=O)CC4C(C)(C)CCC(OC(C)=O)C4(C)C2C(OC(C)=O)CC1(OC(C)=O)C3OC(C)=O (centres undefined) |
| 201 to 202 | N#Cc1c(NC(=O)c2ccc(Cl)cc2Cl)sc2c1CCCC2 |
| 149 | O=C1/C(=C\c2ccc(Cl)cc2)SC(=S)N1CN1CCOCC1 |
| 221 to 225 | Cc1nc(-c2ccc3c(c2)CCO3)sc1C(=O)O |
| 90 | N#Cc1cc(F)ccc1Br |
| 118 to 122 | Nc1ccccc1S(=O)(=O)c1ccccc1 |
| 172 | O=C(O)c1cnc(Cl)c(Br)c1 |
| 185 | O=C1c2ccccc2C(=O)C1c1cc(Cl)c([N+](=O)[O-])cc1[N+](=O)[O-] |
| 163 | CCCOC(=O)C1=C(C)NC(=O)NC1c1cccc(OC)c1OC (centres undefined) |
| 57 | O=C1CCCCCN1c1ccccc1 |
| 134 | COC(=O)c1cc(Br)ccc1NC(C)=O |
| 193 to 196 | CSc1nc(N)nc(-c2ccccn2)n1 |
| 223 | O=C(O)C(=Cc1ccccc1)C(=Cc1ccccc1)C(=O)O |
| 82 to 84 | CSC(SC)=C(C#N)C(=O)c1ccc(Cl)cc1 |
| 190 | CN(C)c1ccc(NC(N)=S)cc1 |
| -15.6 | ClCCI |
| 34 | COc1ccc(Cl)cc1C |
| 115 to 117 | O=C(O)C12CC3CC(C1)CC(C(F)(F)C(F)C(F)(F)F)(C3)C2 (centres undefined) |
| 296 | N#Cc1ccc(C(Cl)=Cc2ccc(C=C(Cl)c3ccc(C#N)cc3[N+](=O)[O-])cc2)c([N+](=O)[O-])c1 |
| 186 | CCCOC(=O)Cn1cc(I)c(=O)c(I)c1 |
| 100 | OCC1OC(SCCc2ccccc2)C(O)C(O)C1O (centres undefined) |
| 111 | CC(=O)c1cc2cc(Br)ccc2o1 |

| melting point [°C] | SMILES |
| --- | --- |
| 125 | O=C(O)c1cc(F)cc([N+](=O)[O-])c1 |
| 69.5 | OCCSCCCCCCCCCCSCCO |
| 94 to 98 | O=C(c1ccc(C(F)(F)F)cc1)c1cccc(C(F)(F)F)c1 |
| 137 to 138 | CCOC(=O)C(ON=C(c1cc2ccccc2o1)c1cc2ccccc2o1)C(=O)OCC |
| 189 to 191 | Nc1ncnc2c1ncn2[C@H]1C=C[C@@H](CO)O1 |
| 144 | CC(C)NC(=S)NC(C)C |
| 52 to 54 | CC[C@H](C)[C@H](NC(=O)OCc1ccccc1)C(=O)O |
| -17 | COc1cccc(O)c1 |
| 185 to 189 | Cc1cc2nc(N)sc2cc1C |
| 200 | Cn1c(/C(C#N)=N/Nc2ccc(C(=O)O)cc2)nc2ccccc21 |
| -7 | C=C(C)CCCCCCCCCCCCC |
| 74 | Nc1ccccc1CCCCc1ccccc1N |
| 57 to 57.5 | OC(c1ccc(Br)cc1)C1CC1 (centres undefined) |
| 49 | CN(C)c1cccc2cccc(N(C)C)c12 |
| 81 | Oc1cc(Br)cc(Br)c1 |
| 65 to 68 | CC(C)(C)OC(=O)N[C@@H](CCC(=O)OCc1ccccc1)C(=O)O |
| 49 to 50 | O=C(CBr)c1ccc(Oc2ccccc2)cc1 |
| -94 | CCCCCCCl |
| 163 | O=C(c1ccccc1)c1ccc(C(=O)c2ccccc2)cc1 |
| 104 | COc1cc(CCC(=O)O)cc(OC)c1OC |
| 170 to 174 | COC(=O)c1ccc(C(=O)CC#N)cc1 |
| 99 to 101 | O=Cc1cccc2nsnc12 |
| 176 | COc1ccc2c(c1OC)C(=O)OC2C1c2c(cc3c(c2OC)OCO3)CCN1C (centres undefined) |
| 76 | N#Cc1ccc(F)cc1Br |
| 93 to 97 | O=C(Cl)c1ccc(N=Nc2ccccc2)cc1 |
| 93 | C(=NN=Cc1ccccc1)c1ccccc1 |

| SMILES | melting point [°C] |
| --- | --- |
| OCCSCCSCCO | 64 to 68 |
| ON=Cc1cccnc1 | 150 |
| CC(=O)Cc1ccccc1 | -15 |
| Brc1ccc2c(c1)CNCC2 | 34 |
| CN1CCC(N(Cc2ccccc2)c2ccccc2)CC1 | 114 |
| CC12CCC(O)CC1=CCC1C2CCC2(C)C1CCC2(C)O (centres undefined) | 206 |
| COc1cc2c(cc1O)[C@H](C)N(C)CC2 | 182 |
| CC(=O)OC1(C(C)=O)CCC2(C)C(CCC3C4CCC(O)C4(C)CCC32)C1 (centres undefined) | 193 |
| O=CC(Cl)C=O | 140 to 145 |
| CCC1(N2CCCCC2)C(=O)NC(=O)NC1=O | 215 |
| C=CCOOC(C)(C)c1ccccc1 | 60 |
| COc1ccc(CCN)cc1OC | 12 to 15 |
| CCC1(CC)C(=O)NC(=S)NC1=O | 180 |
| Cc1cncc(N2CCNCC2)n1 | 49 to 51 |
